# In paper PMC11149917, “Translational and Therapeutic Evaluation of RAS-GTP Inhibition by RMC-6236 in RAS-Driven Cancers” (Cancer Discovery, 2024):
# Read-outs that look alike come from different tables or passages of the source.
# Assays:
# [1] = tested on: DUSP6 mRNA in NCI-H441 xenograft tumors; assay: Mouse PK/PD modeling
# From the text: (§1) Akaike information criterion values were used to discriminate between model structure and fit. Individual data points (n = 3/time point) were averaged from sparsely sampled PK/PD data to create mean profiles, which were used for subsequent modeling. A graphical representation of the model and all parameter estimates and equations can be found in the Supplementary Information (Supplementary Fig. S6; Supplementary Table S8l Supplementary Method).
# (§2) For PK modeling, whole blood PK data from single or repeat dose administration of 25 or 40 mg/kg RMC-6236 to NCI-H441 xenograft tumor-bearing mice were used (Supplementary Table S9). RMC-6236 blood PK was best described using a one-compartment model with first-order absorption and elimination. Because intravenous data were not included in the modeling, the model was parameterized in terms of apparent clearance (CL/F) and volume of distribution (V/F), where F is the oral bioavailability.
# (§3) The mouse whole-blood PK model was expanded to include tumor PK/PD by incorporating blood–plasma partitioning, plasma protein binding, and tumor partitioning and PD parameters. PK/PD modeling was conducted using data from NCI-H441 xenograft tumor-bearing mice due to greater data availability. RMC-6236 tumor concentrations and DUSP6 mRNA expression were measured in tumor tissue after single or repeat dose administration of 25 or 40 mg/kg to NCI-H441 xenograft tumor-bearing mice (Supplementary Table S9). […] The PD response was modeled using DUSP6 biomarker data from NCI-H441 mouse xenograft studies. […] As such, an indirect response model was used to describe the suppression of DUSP6 expression, assuming zero-order production, first-order degradation, and maximal inhibition fixed at 100%.
# (§4) Tumor PK and PD were added to the model by incorporating blood-plasma partitioning, plasma protein binding, and tumor partitioning and PD parameters.
# (§5) The unbound plasma concentrations were used as a driving function to predict total tumor concentrations. Separate tumor partitioning rates were fit to match the observed extended half-life of RMC-6236. The tumor partitioning rates were manually adjusted to best fit repeat dose data as this was assumed to be more relevant for clinical predictions. It is important to note that the kinetic rate constant for removal of drug from the tumor incorporates a non-identifiable tumor fraction unbound variable, since only unbound drug should partition across cell membranes.
# [2] = Mouse PK/PD modeling; conditions: mouse, whole blood, oral
# From the text: as §1, §2, §3, §4, §5
# [3] = target: wild-type NRAS (Homo sapiens, UniProt P01111+P62937); assay: RAS-RAF TR-FRET; format: biochemical; conditions: 25 µmol/L CypA, read-out: EC50, disruption of RAF-RBD binding
# Sequence of wild-type NRAS (P01111 1-169): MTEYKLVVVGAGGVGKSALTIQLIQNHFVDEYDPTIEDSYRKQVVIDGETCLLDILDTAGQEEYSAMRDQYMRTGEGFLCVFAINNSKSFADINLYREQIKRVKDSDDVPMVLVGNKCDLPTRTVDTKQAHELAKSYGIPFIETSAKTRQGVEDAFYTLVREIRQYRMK
# Sequence of wild-type NRAS (P62937 whole entry): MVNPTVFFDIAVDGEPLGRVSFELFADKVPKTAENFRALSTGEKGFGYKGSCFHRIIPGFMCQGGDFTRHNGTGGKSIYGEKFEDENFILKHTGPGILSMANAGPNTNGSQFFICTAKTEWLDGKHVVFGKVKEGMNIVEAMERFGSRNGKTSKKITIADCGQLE
# [4] = tested on: DUSP6 mRNA in human tumors; assay: PK/PD model scaled to humans
# From the text: Tumor growth was modeled using the approach previously described by Simeoni and colleagues ([45]). As detailed previously, tumor volume data were collected from mice bearing either NCI-H441 or Capan-2 xenograft tumors in 28-day efficacy studies (Supplementary Table S9). Estimated intrinsic tumor growth parameters include initial tumor volume, W0, which was set to the observed initial tumor volume, and the exponential and linear growth rates constants, λ0 and λ1, which were estimated from vehicle-treated animal tumor growth. Drug-specific parameters include a measure of drug potency, k2, and a transfer rate constant, k1, which describes cell death kinetics. A tumor stasis concentration threshold (CT) was calculated as λ0/k2 and converted to a human equivalent by adjusting for species differences in blood-plasma partitioning and plasma protein binding as discussed in Supplementary Methods. Human PK parameters were predicted via multispecies allometric scaling or assigned as the preclinical average and used to simulate mean steady-state human exposure at various dose levels.
# The mouse PK/PD model was scaled to humans by incorporating human-specific plasma protein binding, blood–plasma partitioning, and estimated human blood PK parameters. The tumor partitioning rate constants were held constant from the mouse model under the assumption that RMC-6236 will partition similarly from free plasma into human-derived xenografts or clinical tumor tissue. Similarly, parameters governing DUSP6 expression were kept the same and assumed to reflect a similarly sensitive tumor in humans. Human simulations were conducted for multiple clinical dose levels using mean PK parameters and assuming an average body weight of 70 kg.
# [5] = Mouse PKPD Model Parameters, Manually fit to repeat dose data
# [6] = Mouse PKPD Model Parameters, NCI-H441 #8 Single and Repeat Dose fit simultaneously
# [7] = Mouse PKPD Model Parameters, apparent value, NCI-H441 #8 Single and Repeat Dose fit simultaneously
# [8] = NCI-H441 PKPD model, Manually Fit
compound,measurement,setting,value
CCn1c(-c2cc(N3CCN(C)CC3)cnc2[C@H](C)OC)c2c3cc(ccc31)-c1csc(n1)C[C@H](NC(=O)[C@H]1C[C@@H]1C)C(=O)N1CCC[C@H](N1)C(=O)OCC(C)(C)C2 [RMC-6236],Imax,"[1]; Mouse PKPD Model Parameters, Fixed",1 unitless
same,Kbt,[1]; [5],115 h⁻¹
same,Ktb,[1]; [5],0.1 h⁻¹
same,Ka,[1]; [6],0.6483 h⁻¹
same,Kout,[1]; [6],2.386 h⁻¹
same,IC50,"[1]; Mouse PKPD Model Parameters, NCI-H441 #8 Single and Repeat Dose fit simultaneously, read-out: IC50",42.3 nM
same,V/F,[1]; [7],10.1992 L
same,Kout,"[1]; NCI-H441 PKPD model, %CV 7.43",2.39 h⁻¹
same,V/F,"[1]; NCI-H441 PKPD model, %CV 14.60",10.20 L
same,Ka,"[1]; NCI-H441 PKPD model, %CV 25.69",0.65 h⁻¹
same,IC50,"[1]; NCI-H441 PKPD model, %CV 60.16, read-out: IC50 (DUSP6 indirect response model)",42.3 nM
same,Kpt,[1]; [8],115 h⁻¹
same,Ktb,[1]; [8],0.1 h⁻¹
same,CL/F,[2]; [7],48.5 mL/min/kg
same,CL/F,"[2]; NCI-H441 PKPD model, %CV 9.90",48.5 mL/min/kg
same,EC50,[3],66 nM
same,Ka,[4]; Human Predictions,2 h⁻¹
same,V/F,[4]; Human Predictions,10.83 L/kg
same,estimated maximal DUSP6 suppression in human tumors,"[4]; daily dose of approximately 100 mg, steady state, transient",≥ 90%
same,estimated mean DUSP6 suppression in human tumors,"[4]; daily dose of approximately 300 mg, across the dosing interval at steady state",≥ 90%
